# Entries after “also recorded” stand apart in the source; their conditions may differ.
# How the values were obtained:
# Type in all cases: cell-based
# [1] = tested on: P. aeruginosa biofilms; assay: Activity against P. aeruginosa biofilms; conditions: 25 μM
# Experimental: Bacterial biofilm formation on implanted medical devices is a serious medical problem because these biofilms can lead to life-threatening systemic infections. We tested selected peptides and rationally designed variants against biofilms formed by P. aeruginosa. […] D-NOGCON reduces viable bacteria by 3.6 logs ( 1/3000 reduction) at 25 μM, while the best conventional antibiotic, Ciprofloxacin, reduced viable bacteria by only 1.7 logs ( 1/55 reduction) at 25 μM.
# [2] = tested on: Hela pTRE-LucIVS2-705 cells; assay: PNA705 mediated luciferase splice correction (luminescence, RLU/μg protein)
# Experimental: To assess nuclear cargo delivery and splice correction, PNA705 (SEQ ID NO: 11) was used. Luciferase production was quantified at both the protein (FIG. 6) and mRNA levels (FIG. 7). To quantify functional luciferase levels following splice correction, Hela pLuc705 cells were treated with a 2× serial dilution starting at 5 μM of CPP-PNA705 for 30 minutes in serum free DMEM at 37° C., washed in PBS, and allowed to recover for 24 hours in complete media. To assess the impact of endosomal entrapment and subsequent lysosomal degradation, some cells were co-treated with the endosomal acidification inhibitor chloroquine (120 μM) along with 5 μM CPP-PNA705. Cell lysates were assayed for luciferase by luminescence. To control for total cell density, lysates were also analyzed for total protein by the BCA assay.
# Hela pTRE-LucIVS2-705 cells were seeded on flat-bottom 96-well plates at 10,000 cells per well in 200 μl complete DMEM. The following day, cells were washed in phosphate buffered saline and topped with premixed 50 μl 2× serum/phenol red free DMEM (Gibco)+50 μl peptide cleavage solution (ddH2O+peptide). Cells were transfected for 30 min at 37° C. with 5% CO2. The transfection solution was removed, cells were washed with PBS, and topped with 100 μl complete DMEM. The next day (24 hour recovery) cells were washed in PBS and lysed in 20 μl reporter lysis buffer (Promega E4030) following the manufacturers protocol. 10 μl of the lysate was removed and total protein concentration was determined using the bicinchoninic acid assay (Pierce BCA Protein Assay-ThermoFisher 23225). The 96-well plate containing the remaining 10 μl lysate was analyzed for luminescence using the Luciferase Assay System (Promega E1500) on a BioTek SYNERGY™ 2 plate reader with injector ports. Data was expressed as Relative Luminescence Units/μg Protein (RLU/μg Protein) and positive wells were defined as those whose RLU/μg Protein values exceeded the average for the plate by at least three standard deviations. […]
# [3] = tested on: Hela cells stably transfected with mCherry and GFP1-10; assay: Split GFP assay (GFP-11 delivery); conditions: all concentrations and temperatures studied
# Experimental: To test the ability of CPPs to deliver other cargoes, specifically a protease-sensitive peptide cargo, we modified the well-known split-GFP assay. CPPs were tested for the ability to deliver the polar 16-residue GFP-11 peptide across the membrane barrier. This peptide rescues the fluorescence of the cytosolic endogenous, non-fluorescent GFP1-10 protein. Here, we stably transfected Hela cells with a plasmid containing the full length mCherry and the non-fluorescent GFP1-10. Following incubation with CPP-GFP-11 constructs at multiple concentrations and temperatures for 30 minutes in serum free DMEM, cells were analyzed by flow cytometry for mCherry and GFP fluorescence (FIG. 17). Live cells expressing mCherry (˜50% of the total cells) were gated and their GFP fluorescence was analyzed. Unlike the luciferase splice correction assay where a single corrected mRNA transcript serves as template for many molecules of functional luciferase, the split GFP assay is stoichiometric; a single GFP-11 peptide can bind to a single GFP1-10 protein producing a finite fluorescent response.
# Hela cells were transfected with p_mCherry-GFP1-10 (Addgene plasmid #78591) using LIPOFECTAMINE® 3000 (ThermoFisher). Single mCherry positive cells were sorted into 96-well plates using a BD™ FACSARIA™ cell sorter and colonies were maintained under G418 selection at […]. Stably transfected cells were plated in 12-well plates at 100,000 cells/well and grown overnight in complete DMEM. Cells were washed in PBS and incubated in 500 μl of CPP-GFP-11 solution at variable concentrations at 23° C. and 37° C. for 30 minutes. The CPP-GFP-11 solution was aspirated and 100 μl of 0.025% trypsin solution was added to each well. After detachment, cells were suspended in 500 μL of PBS+2% FBS and 20 mM HEPES. Cells were analyzed using a BD™ LSRII flow cytometer. Cells displaying a normal morphology were gated and first analyzed for mCherry fluorescence using the 543 nM laser. mCherry+ cells were used to generate a histogram of GFP fluorescence measured with the 488 nM laser.
# [4] = tested on: Hela pTRE-LucIVS2 cells; assay: ALAMARBLUE toxicity assay of CPP-PNA705; conditions: 10 μM CPP-PNA705 conjugate, after 24 hours
# Experimental: CPP-PNA705 cytotoxicity was assessed using several methods known in the art. A Lactate Dehydrogenase (LDH) assay (FIG. 5A) measured the acute cytotoxicity and detects LDH released by cells because of membrane damage resulting from exposure to the CPPs. An ALAMARBLUE® assay (FIG. 5B) and a Bicinchoninic Acid (BCA) Assay (FIG. 5C) both measure the impact of exposure after 24 hours. In the ALAMARBLUE®, assay some reduction in metabolic activity was detected in Hela705 cells treated with 20 μM CPP-PNA705 concentrations for 1 hour.
# Hela pTRE-LucIVS2 cells were plated in 96-well plates at 10,000 cells/well. After 24 hours, cells were treated with CPP constructs for 1 Hr in sfDMEM at 37° C., washed in PBS, and allowed to recover for 24 hours in 100 μl complete media. 10 μl ALAMARBLUE® (ThermoFisher) was added to each well and cells were incubated fo4r 2 Hrs at 37° C. Reduction of ALAMARBLUE® was determined by fluorescence at […].
# [5] = tested on: HeLa, RAW264.7, HepG2, and MCF-7 cells; assay: TAMRA delivery assay (flow cytometry, confocal microscopy); conditions: 0.5 μM CPP-TA + 4.5 μM CPP-C, 30 minutes at 4° C., 22° C., or 37° C.
# Experimental: To determine the effect of the PNA cargo on delivery, we labeled CPPs, lacking the PNA705 cargo, with the fluorophore TAMRA on a C-terminal cysteine residue (CPP-TA) and measured delivery to multiple cell types. TAMRA-labelled CPPs, mixed with unlabeled CPPs at a 1:10 ratio in serum-free DMEM for a final concentration of 5 μM total peptide, was added to HeLa, RAW264.7, HepG2, and MCF-7 cells in 12-well cell culture plates and incubated for 30 minutes at 4° C., 22° C., or 37° C. prior to flow cytometric analysis (FIGS. 9-16). […] Delivery of TAMRA was verified by confocal microscopy for each cell type.
# Hela, RAW264.7, HCT116, HepG2, and MCF-7 cells were plated in 12-well plates at 100,000 cells/well. After 24 hours, cells were gently washed in PBS, topped with 500 μl of CPP-TA solution containing 0.5 μM CPP-TA+4.5 uM CPP-C in sfDMEM without phenol red, and incubated for 30 min at either 4° C., 23° C., or 37° C. The incubation solution was aspirated and cells were treated with 100 μl 0.025% Trypsin for 3 minutes at 23° C. 500 μl DMEM containing 2% FBS, 125 nM Sytox Green, and 20 mM HEPES was used to suspend the cells. Cells were transferred to a filter-topped flow cytometry tube and analyzed on a BD™ LSR II flow cytometer. Cells displaying a normal morphology were gated and first analyzed for GFP fluorescence using the 488 nM laser. GFP negative cells were used to generate a histogram of TAMRA fluorescence, measured with the 543 nM laser.
# Cells were treated as described above for the TAMRA delivery assay and immediately imaged to avoid artifacts resulting from fixation. The distribution of TAMRA and Sytox Green was analyzed using a confocal scanning Nikon Eclipse Ti2 inverted microscope using a 40× oil-immersion objective. Sytox Green was excited using the 488 nM laser and TAMRA was excited using the 543 nM laser.
Compound,reduction of viable bacteria in biofilm [1] [logs],"efficiency of PNA705 delivery in cell culture (words, rank order) [2]",GFP-11 delivery [3],reduction in metabolic activity [4],"TAMRA delivery (words, rank order) [5]"
"O=C(O)c1cn(C2CC2)c2cc(N3CCNCC3)c(F)cc2c1=O [Ciprofloxacin, reference compound]",1.7,,,,
RKKRWFRRRRPKWKK [CPP-1],,most efficient at PNA delivery,deliver GFP-11 to more cells than Tat and penetratin; also recorded: most efficient at GFP-11 delivery,20%,CPP-2»CPP-3=CPP-1>CPP-4>TAT=penetratin
RRKKIWFRRLRMK [CPP-4],,successfully delivers PNA705,does not deliver GFP-11 or TAMRA significantly,little effect,CPP-2»CPP-3=CPP-1>CPP-4>TAT=penetratin; also recorded: does not deliver GFP-11 or TAMRA significantly
"RRRRRRRRR [Arg9, reference compound]",,much better than Tat,,,

# — patent publication US11266743B2, “Peptide compositions and methods of use thereof” (priority 2017, dated 2022)
